According to publication PMC10552397 (Cell Communication and Signaling : CCS, 2023):

System: HeLa GRASP55 KO cells
Assay: Secretome analysis by data-independent mass spectrometry
Type: cell-based
Settings: 100 nM, 24 h, serum-free, not apparent in wt
Procedure: For the preparation of secretomes, 2*10^5 HeLa wt or HeLa GRASP55 KO cells per well were seeded in a 6-well plate (n = 5 replicates for 4 different groups). […] After incubation, the medium was collected, centrifuged at 1,000 × g and 4 °C for 10 min and filtered through a 0.2 µm Acrodisc syringe filter (VWR, Radnor, PA, USA, #514–4131). After adding protease inhibitor cocktail (Roche, Basel, Switzerland, #5,892,791,001), the samples were snap frozen in liquid nitrogen and stored at -80 °C. Proteins were prepared for mass spectrometric analysis by a modified single-pot, solid-phase-enhance sample preparation (SP3) method. […] Finally, the sample was reconstituted in 0.1% trifluoroacetic acid and half of the sample analyzed by mass spectrometry. […]
Only proteins identified with at least two different peptides and 4 valid intensity values (MaxLFQ) in at least one experimental group were considered for further analysis. […] Annotation dependent significant abundance changes of protein groups were analysed using 1D and 2D annotation enrichment and respective differences visualized with split-violin plots with OriginPro 2020b.

CCCCCC1=C/C(=C/c2[nH]c(-c3ccc[nH]3)cc2OC)N=C1C [Prodigiosin, prodigiosin] was tested, and the “abundance of signal peptide (SP) proteins in the secretome” value was “higher abundances”.
